Data on one compound can be found in patent US5932555A (priority 1997, dated 1999).

Series [1] relates to adriamycin-resistant P388. Description: Cytotoxicity test on adriamycin-resistant P388 (P388/ADR) (MTT, 72 h). The series is classed as cell-based. How it is done:
Cultured tumor cell lines P388 and P388/ADR were suspended in RPMI1640 medium containing 10% heat inactivated fetal calf serum (FCS) and 20 μM 2-mercaptoethanol whereby a cell suspension (5×10^4 cells/ml) was prepared.
A sample examined was dissolved in methanol, then diluted with RPMI 1640 medium and subjected to serial 2-fold dilution starting at the concentration of 0.1 mg/ml. 180 μl of the cell suspension and 20 μl of the sample solution were added into a 96-well micro-titer plate and incubated at 37° C. in wet 5% CO2 gas/95% air. 72 hours thereafter, cell growth was measured by a calorimetric assay method using 3-(4,5-dimethyl-2-thiazolyl)-2,5-diphenyl-2H-tetrazolium bromide (MTT) as follows: 20 μl of 2 mg/ml MTT solution was added to each well and the cells were incubated for 4 hours at 37° C. Thereafter, 50 μl of 50% dimethylformamide solution containing 20% sodium dodecyl sulfate was added to each well and allowed to stand, so that the formed violet formazan crystal was dissolved, and its absorbance at 570 nm was measured in a microplate absorbance photometer (Immunoreader) and used as an indicator of the growth. The result was expressed in terms of the concentration of a sample at which growth was inhibited by 50% (IC50), which was determined from the relationship between sample concentrations and degrees of inhibition calculated using the following equation (1):
Degree of inhibition=[1-(absorbance in presence of sample)/(absorbance in
absence of sample)]×100 (1)

The test system of series [2] is blastgenesis of lymphocytes. In words: Mouse allogenic mixed lymphocyte reaction (MLR), inhibition of blastgenesis ([3H]-thymidine incorporation). The following applies: 96 h. Type of series: cell-based, mouse (C57BL/6 responder, BALB/C stimulator). On the procedure: The mouse allogenic mixed lymphocyte reaction for assay was carried out according to the method of Hatanaka et al. (Hatanaka et al., J. Antibiotics, 41, 1592-1601 (1988)). That is, spleen cells from C57BL/6 mouse (H-2^b) as responder cells were mixed with spleen cells from BALB/C mouse (H-2^d) treated with mitomycin C as stimulator cells, and then cultured.
Preparation of the responder cells was carried out in the following manner:
The spleen was removed from a 5- to 6-week-old C57BL/6 mouse, then homogenized in 20 ml ice-cold RPMI 1640 medium supplemented with 10% heat inactivated fetal calf serum (FCS), and filtered through a gauze to give a single cell suspension. The cells were recovered by centrifugation, suspended in 4 ml PRMI 1640 medium, followed by adding 6 ml solution (pH 7.2) containing 0.15 M ammonium chloride, 1 mM sodium hydrogen carbonate and 0.1 mM tetrasodium ethylenediaminetetraacetate, and the mixture was incubated at 0° C. for 1 minute to remove the contaminating erythrocytes. […]
90 μl of the responder cell suspension, 90 μl of the stimulator cell suspension and 20 μl of sample were added to a 96-well microplate and incubated at 37° C. in wet 5% CO2 /95% air for 96 hours. […] The radioactivity of a filter disk corresponding to each well was determined using liquid scintillation counter (beta-counter).
(In general: Uptake of a labelled nucleoside into DNA is a usual measure of proliferation.)

Series [3] deals with P388/ADR. In words: Mouse in vivo antitumor test, P388/ADR transplanted. Conditions: for T/C / average body weight after 10 days / average survival days: P388/ADR. On the procedure: 2×10^5 cells of P388 or P388/ADR were inoculated intraperitoneally into each of CDF1 mice (male, each weighing 20 g, 10 animals/group), and from the next day, the test solution was administered at 10, 5, and 1 mg/kg body weight/day respectively by intraperitoneal injection of 200 μl sample at each concentration once a day for 10 successive days. The numbers with time of mice which survived after administration was counted and the average survival days and T/C (survival days of treated mice/survival days of control mice) were calculated. The average body weights after 10 days were also measured.

SMILES strings stand for the structures. ≈ marks a conversion by molar mass, not a printed value.

As a reminder, the IC50 is the concentration at which inhibition is half-maximal. By T/C is commonly meant the ratio of treated to control. `COC(CC1C(C)=CCC2C1(C)CCC1C(C)(C)C(O)C(OC3OC(C)C(OC(=O)c4cccc(O)c4)C(OC4OC(CO)C(O)C(O)C4NC(C)=O)C3O)CC12C)C(N)C(=O)O` (stereo not shown) [0406TP-1]: the IC50 in series [1] (Mus musculus, adriamycin-resistant P388, 72 h, MTT, read-out: IC50 (growth inhibition)) worked out at 0.22 µg/mL (≈ 0.246 µM); in series [2], 0.11 µg/mL (≈ 0.123 µM). In addition, the “inhibition on growth of adriamycin-resistant cells” value in series [1] (in words) is listed as “strong inhibition”. The T/C in series [3] (1 mg/kg/day i.p. × 10 days) came to 130%; in series [3] (5 mg/kg/day i.p. × 10 days) it was 133%; in series [3] (10 mg/kg/day i.p. × 10 days), 165%. The “average body weight after 10 days” value in series [3] (1 mg/kg/day i.p. × 10 days) turned out to be 26.2 g; in series [3] (5 mg/kg/day i.p. × 10 days), 27.3 g; in series [3] (10 mg/kg/day i.p. × 10 days), 26.4 g. The average survival days in series [3] (1 mg/kg/day i.p. × 10 days) came to 14.4 days; in series [3] (5 mg/kg/day i.p. × 10 days) it was 14.8 days; in series [3] (10 mg/kg/day i.p. × 10 days), 18.3 days. Besides, the therapeutic effect entry in series [3] (P388/ADR-transplanted mice) is on record as “significant therapeutic effect”.
